US20070117743A1, “New antitumoral compounds” (priority 2003, published 2007)
Where a SMILES comes first, the peptide text is derived from it. Bridges are numbered along the chain shown (N, C = ends). [ ]: non-standard residue; d: D form. The star is where a group is joined. d(aIle) = CC[C@H](C)[C@@H](N)C(=O)O; d(aThr) = C[C@@H](O)[C@@H](N)C(=O)O; Hexanoyl(5-Me) = CC(C)CCCC(=O)*; Orn = NCCC[C@H](N)C(=O)O; Dhb = C/C=C(\N)C(=O)O

Columns and labels:
Type in all cases: cell-based, human
PANC-1 = test: SRB colorimetric assay of cell growth and viability, PANC-1; conditions: PANC-1, 48 hours exposure; for CC50: read-out: LC50 PANC-1
LoVo-Dox = test: SRB colorimetric assay of cell growth and viability, LoVo-Dox; conditions: LOVO-DOX, 48 hours exposure; for CC50: read-out: LC50 LOVO-DOX
Method in brief: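 Sulforhodamine B assay run after 48 h of continuous drug contact; cells seeded 5×10^3/well in RPMI 1640 10% FBS, attached 18 h. Triplicate OD490 values give cytostatic (TGI), cytotoxic (LC) and GI parameters.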

DU-145 = test: SRB colorimetric assay of cell growth and viability, DU-145; conditions: DU-145; 48 hours exposure
HeLa = test: SRB colorimetric assay of cell growth and viability, HeLa; conditions: HELA, 48 hours exposure; for CC50: read-out: LC50 HELA
HT-29 = test: SRB colorimetric assay of cell growth and viability, HT-29; conditions: HT-29, 48 hours exposure; for GI50: read-out: GI50 HT-29; for CC50: read-out: LC50 HT-29
A-549 = test: SRB colorimetric assay of cell growth and viability, A-549; conditions: A-549, 48 hours exposure; for GI50: read-out: GI50 A-549; for CC50: read-out: LC50 A-549
SK-MEL-28 = test: SRB colorimetric assay of cell growth and viability, SK-MEL-28; conditions: MEL-28, 48 hours exposure; for CC50: read-out: LC50 MEL-28
K-562 = test: SRB colorimetric assay of cell growth and viability, K-562; conditions: K-562, 48 hours exposure; for CC50: read-out: LC50 K-562
SK-BR-3 = test: SRB colorimetric assay of cell growth and viability, SK-BR-3; conditions: SK-BR-3; 48 hours exposure
HeLa-APL = test: SRB colorimetric assay of cell growth and viability, HeLa-APL; conditions: HELA-APL, 48 hours exposure; for CC50: read-out: LC50 HELA-APL
IGROV-1 = test: SRB colorimetric assay of cell growth and viability, IGROV-1; conditions: IGROV; 48 hours exposure
LNCaP = test: SRB colorimetric assay of cell growth and viability, LNCaP; conditions: LN-caP, 48 hours exposure; for CC50: read-out: LC50 LN-caP
IGROV-ET = test: SRB colorimetric assay of cell growth and viability, IGROV-ET; conditions: IGROV-ET, 48 hours exposure; for CC50: read-out: LC50 IGROV-ET

Structure (SMILES) | GI50 (PANC-1) [µM] | TGI PANC-1 (PANC-1) [Molar] | CC50 (PANC-1) [µM] | GI50 (LoVo-Dox) [µM] | TGI LOVO-DOX (LoVo-Dox) [Molar] | CC50 (LoVo-Dox) [µM] | GI50 (DU-145) [µM] | LC50 (concentration causing 50% net cell kill) (DU-145) [µM] | TGI DU-145 (DU-145) [Molar] | GI50 (HeLa) [µM] | TGI HELA (HeLa) [Molar] | CC50 (HeLa) [µM] | TGI HT-29 (HT-29) [Molar] | GI50 (HT-29) [µM] | CC50 (HT-29) [µM] | TGI A-549 (A-549) [Molar] | GI50 (A-549) [µM] | CC50 (A-549) [µM] | GI50 (SK-MEL-28) [µM] | TGI MEL-28 (SK-MEL-28) [Molar] | further results
C/C=C1\NC(=O)[C@H](Cc2ccccc2)NC(=O)[C@@H](C(C)C)NC(=O)[C@@H]([C@@H](C)CC)NC(=O)[C@H](NC(=O)[C@H](NC(=O)[C@H](CCCN)NC(=O)[C@H]2CCCN2C(=O)[C@H](NC(=O)[C@@H](NC(=O)[C@@H]2CCCN2C(=O)[C@H](NC(=O)CCCC(C)C)C(C)C)C(C)C)C(C)C)[C@@H](C)CC)[C@@H](C)OC(=O)[C@H](C(C)C)NC1=O [Compound 117, [Pro^12]-KF] ({Hexanoyl(5-Me)}-[dV]PV[dV][dP][Orn][d(aIle)][d(aThr)][d(aIle)][dV]F[Dhb]V; ester 8-C) | 3.88 | 6.78E−06 | 6.78 | 1.83 | 3.59E−06 | 6.78 | 2.41 | 6.78 | 5.43E−06 | 1.53 | 2.89E−06 | 5.46 | 3.38E−06 | 0.0176 | ≥ 6.49 | 6.78E−06 | 3.29 | 6.78 | 2 | 4.26E−06 | CC50 (SK-MEL-28): 6.78 µM; GI50 (K-562): 0.841 µM; TGI K-562 (K-562): 2.10E−06 Molar; CC50 (K-562): 5.22 µM; GI50 (SK-BR-3): 1.55 µM; LC50 (SK-BR-3): 5.62 µM; TGI SK-BR-3 (SK-BR-3): 2.96E−06 Molar; GI50 (HeLa-APL): 1.84 µM; TGI HELA-APL (HeLa-APL): 3.98E−06 Molar; CC50 (HeLa-APL): 6.78 µM; GI50 (IGROV-1): 1.97 µM; LC50 (concentration causing 50% net cell killing) (IGROV-1): 6.78 µM; TGI IGROV (IGROV-1): 3.70E−06 Molar; GI50 (LNCaP): 1.51 µM; TGI LN-caP (LNCaP): 2.87E−06 Molar; CC50 (LNCaP): 5.45 µM; GI50 (IGROV-ET): 1.82 µM; TGI IGROV-ET (IGROV-ET): 3.11E−06 Molar; CC50 (IGROV-ET): 5.34 µM
C/C=C1\NC(=O)[C@H](Cc2ccccc2)NC(=O)[C@@H](C(C)C)NC(=O)[C@@H]([C@@H](C)CC)NC(=O)[C@H](NC(=O)[C@H](NC(=O)[C@H](CCCN)NC(=O)[C@H]2CCCN2C(=O)[C@H](NC(=O)[C@@H](NC(=O)[C@@H](NC(=O)[C@@H](CCCN)NC(=O)CCCC(C)C)[C@@H](C)O)C(C)C)C(C)C)[C@@H](C)CC)[C@@H](C)OC(=O)[C@H](C(C)C)NC1=O [Compound 118, [D-Orn^13]-KF] | 2.09 | 4.74E−06 | 6.7 | 1.59 | 3.28E−06 | 6.7 | 1.86 | 6.7 | 3.84E−06 | 1.57 | 3.30E−06 | 6.7 | 2.84E−06 | 1.2 | 6.7 | 4.21E−06 | 1.96 | 6.7 | 1.49 | 2.88E−06 | CC50 (SK-MEL-28): 5.55 µM; GI50 (K-562): 1.6 µM; TGI K-562 (K-562): 3.92E−06 Molar; CC50 (K-562): 6.7 µM; GI50 (SK-BR-3): 0.851 µM; LC50 (SK-BR-3): 4.42 µM; TGI SK-BR-3 (SK-BR-3): 1.94E−06 Molar; GI50 (HeLa-APL): 1.86 µM; TGI HELA-APL (HeLa-APL): 4.15E−06 Molar; CC50 (HeLa-APL): 6.7 µM; GI50 (IGROV-1): 1.45 µM; LC50 (concentration causing 50% net cell killing) (IGROV-1): 5.24 µM; TGI IGROV (IGROV-1): 2.76E−06 Molar; GI50 (LNCaP): 2.87 µM; TGI LN-caP (LNCaP): 6.70E−06 Molar; CC50 (LNCaP): 6.7 µM; GI50 (IGROV-ET): 1.85 µM; TGI IGROV-ET (IGROV-ET): 3.74E−06 Molar; CC50 (IGROV-ET): 6.7 µM
